The values that follow come from patent publication US20220296536A1, “PAIN MANAGEMENT METHODOLOGY” (priority 2019, published 2022).

The subject of assay [1] is pain in a patient. Here is the method: In each of the examples, below, the method of the invention was used: the patient was aurally isolated in a quiet room, being the waiting room or vestibule to an operating theatre with only the deliverer present during the aural isolation period. The patient was exposed to the repetitive, positive message delivered orally by the deliverer. The chosen period was between 20 and 30 minutes. The deliverer repeated the message constantly during the chosen period. The message was: ‘When I wake up, I will have no pain’.
At the conclusion of the chosen period, the patient was administered propofol and became unconscious.

The subject of assay [2] is pain in a patient. The assay is described as follows: earlier pharmaceutical treatment of Patient A's pain. The conditions noted are these: terminal prostate cancer, before use of the method. Format: in vivo, human. The text has this:
Patient A was a person having terminal prostate cancer. Patient A was suffering a high level of pain, for which pharmaceutical treatment, even morphine, had become ineffective.

Where [3] appears, read: Example 5, Patient B, hip replacement.

Molecules are shown by their SMILES. Read-outs that look alike come from different tables or passages of the source.

With `CC(C)c1cccc(C(C)C)c1O` [propofol, 2,6-diisopropylphenol], the pain after surgery entry with pain in a patient [1] (Example 1, Patient A, terminal prostate cancer, surgery for incontinence problem, from regaining consciousness until three weeks later) is “free of pain”; with pain in a patient [1] (Example 6, Patient B, painful infection within left shoulder, surgery), “pain-free”. For the same compound, the pain entry in the assay with pain in a patient [1] (Example 2, Patient B, bleeding on the brain, skull drilled to drain blood) was “experienced no pain”. The pain post-surgery entry in the assay with pain in a patient [1] (Example 3, Patient B, cataract surgery) was “experienced no pain post-surgery”; with pain in a patient [1] (setting [3]), “no pain post-surgery”; in the assay on pain in a patient [1] (Example 7, Patient B, osteomyelitis in right hip, stripping of veins and skin graft) it was “no pain post-surgery”; in the assay on pain in a patient [1] (Example 8, Patient B, open-heart surgery to replace aortic valve, three surgeries), “no pain post-surgery each time”; with pain in a patient [1] (Example 9, Patient C, hip replacement), “no pain post-surgery”; in the assay on pain in a patient [1] (Example 10, Patient D, radical hysterectomy), “experienced no pain post-surgery”. In addition, in the assay on pain in a patient [1] (Example 4, Patient B, radical endoscopic sinus surgery), the post-operative pain result is recorded as “experienced no post-operative pain”. Further, the recovery entry with pain in a patient [1] (setting [3]) is “accelerated recovery”. Besides, in the assay on pain in a patient [1] (Example 5, Patient B, hip replacement, 7 days bed rest normally expected), the “time to being ambulatory” value is given as “ambulatory within one hour”. In addition, in the assay with pain in a patient [1] (all patients of Examples 1-10, propofol given after 20-30 min aural isolation with message), the “need for pharmaceutical pain relief after use of the method” value was “None of the patients in the examples below required pharmaceutical pain relief”. Moreover, the recovery from surgery entry in the assay on pain in a patient [1] (all patients of the examples, when surgery was used) is “All experienced accelerated recovery from surgery”.

Consider `CN1CC[C@]23c4c5ccc(O)c4O[C@H]2[C@@H](O)C=C[C@H]3[C@H]1C5` [morphine], for which the “effect of pharmaceutical treatment on high level of pain” value in the assay on pain in a patient [2] was “ineffective”.
